The test system of data set [1] is bicistronic HCV replicon (replicon RNA, GenBank Accession No. AJ242654). As to the kind of experiment: HCV Replicon Assay. The format is cell-based. The following applies: Hepatitis C virus, 72 h, read-out: Replicon IC50.

`CCc1cc2c(cc1F)c(C#N)c(-c1ccc(S(=O)(=O)N[C@@H](C)C(F)(F)F)cn1)n2-c1cc(OC)ccn1` [compound 955, 6-[3-cyano-6-ethyl-5-fluoro-1-(4-methoxypyridin-2-yl)-1H-indol-2-yl]-N-[(2S)-1,1,1-trifluoropropan-2-yl]pyridine-3-sulfonamide] registered a melting point of 227 to 233 °C. In data set [1], the IC50 is less than 500 nM.

The molecule `Cc1ccc2c(C#N)c(-c3ccc(S(=O)(=O)NC(CF)CF)cn3)n(C3CCCC3)c2c1F` [compound 423, 6-(3-cyano-1-cyclopentyl-7-fluoro-6-methyl-1H-indol-2-yl)-N-(1,3-difluoropropan-2-yl)pyridine-3-sulfonamide] had a melting point of 211 to 216 °C. In addition, the IC50 in data set [1] is less than 500 nM.

Take `C[C@H](NS(=O)(=O)c1ccc(-c2c(C#N)c3ccc(F)cc3n2C2CCCCC2)nc1)C1CC1` [compound 262, 6-(3-cyano-1-cyclohexyl-6-fluoro-1H-indol-2-yl)-N-[(1S)-1-cyclopropylethyl]pyridine-3-sulfonamide]: the melting point lay in the range of 161 to 162 °C. Also, in data set [1], the IC50 is less than 500 nM.

`CC(C)S(=O)(=O)Nc1ccc(-c2c(C#N)c3ccc(C4CC4)cc3n2C2CCC2)cn1` [compound 289, N-[5-(3-cyano-1-cyclobutyl-6-cyclopropyl-1H-indol-2-yl)pyridin-2-yl]propane-2-sulfonamide]: the melting point fell in the range of 226 to 228 °C. Besides, the IC50 in data set [1] is 500 to 2000 nM.

On to `CC(C)NS(=O)(=O)c1ccc(-c2c(C#N)c3cc(F)ccc3n2-c2ccccn2)nc1` [compound 439, 6-[3-cyano-5-fluoro-1-(pyridin-2-yl)-1H-indol-2-yl]-N-(propan-2-yl)pyridine-3-sulfonamide], for which the melting point lay in the range of 208 to 210 °C. Moreover, the IC50 in data set [1] was less than 500 nM.

For the molecule `C[C@H](NS(=O)(=O)c1ccc(-c2c(C#N)c3ccc(C4CC4)cc3n2C2CCCC2)nc1)C(F)(F)F` [compound 383, 6-(3-cyano-1-cyclopentyl-6-cyclopropyl-1H-indol-2-yl)-N-[(2S)-1,1,1-trifluoropropan-2-yl]pyridine-3-sulfonamide], the melting point was 178 to 181 °C. The IC50 in data set [1] was less than 500 nM.

`Cc1ccc2c(C#N)c(-c3ccc(S(=O)(=O)N[C@@H](C)C(F)(F)F)cn3)n(C3CCC3)c2c1` [compound 351, 6-(3-cyano-1-cyclobutyl-6-methyl-1H-indol-2-yl)-N-[(2S)-1,1,1-trifluoropropan-2-yl]pyridine-3-sulfonamide]: the melting point lay within 203 to 208 °C. In addition, in data set [1], the IC50 is less than 500 nM.

`CCc1cc2c(cc1F)c(C#N)c(-c1cc(C)c(S(=O)(=O)N[C@@H](C)C(F)(F)F)cn1)n2-c1ccccn1` [compound 852, 6-[3-cyano-6-ethyl-5-fluoro-1-(pyridin-2-yl)-1H-indol-2-yl]-4-methyl-N-[(2S)-1,1,1-trifluoropropan-2-yl]pyridine-3-sulfonamide] returned a melting point of 178 to 183 °C. Moreover, the IC50 in data set [1] was less than 500 nM.

Take `C[C@H](NS(=O)(=O)c1ccc(-c2c(C#N)c3ccc(Cl)cc3n2-c2ccccn2)nc1)C(F)(F)F` [compound 437, 6-[6-chloro-3-cyano-1-(pyridin-2-yl)-1H-indol-2-yl]-N-[(2S)-1,1,1-trifluoropropan-2-yl]pyridine-3-sulfonamide]: the melting point fell in the range of 177 to 178 °C. Also, the IC50 in data set [1] was less than 500 nM.

Turning to `Cc1cnc(-n2c(-c3ccc(S(=O)(=O)N[C@@H](C)C(F)(F)F)cn3)c(C#N)c3cc(F)c(C)cc32)nc1` [compound 925, 6-[3-cyano-5-fluoro-6-methyl-1-(5-methylpyrimidin-2-yl)-1H-indol-2-yl]-N-[(2S)-1,1,1-trifluoropropan-2-yl]pyridine-3-sulfonamide], the melting point lay within 179 to 184 °C. Also, in data set [1], the IC50 is less than 500 nM.

For the molecule `C[C@@H](NS(=O)(=O)c1ccc(-c2c(C#N)c3cc(F)ccc3n2C2CCCC2)nc1)C(F)(F)F` [compound 220, 6-(3-cyano-1-cyclopentyl-5-fluoro-1H-indol-2-yl)-N-[(2R)-1,1,1-trifluoropropan-2-yl]pyridine-3-sulfonamide], the melting point lay within 158 to 160 °C. In addition, in data set [1], the IC50 is less than 500 nM.

Molecule `CC(C)(C)NS(=O)(=O)c1ccc(-c2c(C#N)c3ccc(OC(F)(F)F)cc3n2C2CCCC2)nc1` [compound 18, N-tert-butyl-6-[3-cyano-1-cyclopentyl-6-(trifluoromethoxy)-1H-indol-2-yl]pyridine-3-sulfonamide] returned a melting point of 182 to 184 °C. Besides, the IC50 in data set [1] lay in the range of 500 to 2000 nM.

As for `Cc1ccc2c(C#N)c(-c3ccc(S(=O)(=O)NC4(C(F)(F)F)CC4)cn3)n(C3CCCC3)c2c1` [compound 190, 6-(3-cyano-1-cyclopentyl-6-methyl-1H-indol-2-yl)-N-[1-(trifluoromethyl)cyclopropyl]pyridine-3-sulfonamide], the melting point lay within 199 to 210 °C. In data set [1], the IC50 was less than 500 nM.

`CC(C)NS(=O)(=O)c1cnc(-c2c(C#N)c3ccc(Cl)cc3n2C2CCC2)nc1` [compound 115, 2-(6-chloro-3-cyano-1-cyclobutyl-1H-indol-2-yl)-N-(propan-2-yl)pyrimidine-5-sulfonamide]: the melting point lay within 228 to 229 °C. Also, the IC50 in data set [1] is less than 500 nM.

As to `Cc1cc2c(C#N)c(-c3ccc(S(=O)(=O)N[C@@H](C)C(F)(F)F)cn3)n(C3CCC3)c2cc1Cl` [compound 506, 6-(6-chloro-3-cyano-1-cyclobutyl-5-methyl-1H-indol-2-yl)-N-[(2S)-1,1,1-trifluoropropan-2-yl]pyridine-3-sulfonamide], the melting point lay within 198 to 198.5 °C. The IC50 in data set [1] was less than 500 nM.

Molecule `C[C@H](NS(=O)(=O)c1ccc(-c2c(C#N)c3cc(F)c(C4CC4)cc3n2-c2ccccn2)nc1)C(F)(F)F` [compound 819, 6-[3-cyano-6-cyclopropyl-5-fluoro-1-(pyridin-2-yl)-1H-indol-2-yl]-N-[(2S)-1,1,1-trifluoropropan-2-yl]pyridine-3-sulfonamide] registered a melting point of 220 to 223 °C. Besides, the IC50 in data set [1] is less than 500 nM.

`N#Cc1c(-c2ccc(S(=O)(=O)NC(CF)CF)cn2)n(C2CCC2)c2cc(C3CC3)c(F)cc12` [compound 107, 6-(3-cyano-1-cyclobutyl-6-cyclopropyl-5-fluoro-1H-indol-2-yl)-N-(1,3-difluoropropan-2-yl)pyridine-3-sulfonamide] registered a melting point of 182 to 186 °C. Besides, the IC50 in data set [1] is less than 500 nM.

Consider `CCc1cc2c(cc1F)c(C(N)=O)c(-c1ccc(S(=O)(=O)N[C@@H](C)C(F)(F)F)cn1)n2-c1cccnn1` [compound 1046, 6-ethyl-5-fluoro-1-(pyridazin-3-yl)-2-(5-{[(2S)-1,1,1-trifluoropropan-2-yl]sulfamoyl}pyridin-2-yl)-1H-indole-3-carboxamide], for which the melting point was 206 to 212 °C. Moreover, the IC50 in data set [1] lay in the range of 2000 to 5000 nM.

The molecule `CCc1cc2c(cc1F)c(C#N)c(-c1ccc(S(=O)(=O)N[C@@H](C)C(F)(F)F)cn1)n2-c1cncnc1` [compound 963, 6-[3-cyano-6-ethyl-5-fluoro-1-(pyrimidin-5-yl)-1H-indol-2-yl]-N-[(2S)-1,1,1-trifluoropropan-2-yl]pyridine-3-sulfonamide] displayed a melting point of 250 to 257 °C. The IC50 in data set [1] was less than 500 nM.

In turn, `CCc1cc2c(cc1F)c(C#N)c(-c1ccc(S(=O)(=O)NCC3CCC3)cn1)n2-c1ncccn1` [compound 953, 6-[3-cyano-6-ethyl-5-fluoro-1-(pyrimidin-2-yl)-1H-indol-2-yl]-N-(cyclobutylmethyl)pyridine-3-sulfonamide] yielded a melting point of 207 to 214 °C. The IC50 in data set [1] is less than 500 nM.

In turn, `COc1ccc2c(C#N)c(-c3ccc(S(=O)(=O)N[C@@H](C)C(F)(F)F)cn3)n(C3CCC3)c2c1` [compound 427, 6-(3-cyano-1-cyclobutyl-6-methoxy-1H-indol-2-yl)-N-[(2S)-1,1,1-trifluoropropan-2-yl]pyridine-3-sulfonamide] yielded a melting point of 206 to 212 °C. In addition, the IC50 in data set [1] is less than 500 nM.

`CC(C)NS(=O)(=O)c1cnc(-c2c(C(N)=O)c3ccc(OC(F)F)cc3n2C2CCCCC2)nc1` [compound 747, 1-cyclohexyl-6-(difluoromethoxy)-2-[5-(propan-2-ylsulfamoyl)pyrimidin-2-yl]-1H-indole-3-carboxamide]: the melting point lay within 216 to 218 °C. In addition, the IC50 in data set [1] is less than 500 nM.

With `C[C@H](NS(=O)(=O)c1ccc(-c2c(C#N)c3ccc(F)cc3n2C2CCCC2)nc1)C(F)(F)F` [compound 396, 6-(3-cyano-1-cyclopentyl-6-fluoro-1H-indol-2-yl)-N-[(2S)-1,1,1-trifluoropropan-2-yl]pyridine-3-sulfonamide], the melting point lay within 132 to 133 °C. The IC50 in data set [1] was less than 500 nM.

Turning to `CCc1cc2c(cc1F)c(C(N)=O)c(-c1ccc(NS(=O)(=O)C(C)(C)C)nc1)n2[C@@H](C)C1CC1` [compound 1083, 2-{6-[(tert-butylsulfonyl)amino]pyridin-3-yl}-1-[(1S)-1-cyclopropylethyl]-6-ethyl-5-fluoro-1H-indole-3-carboxamide], the melting point lay in the range of 256 to 259 °C. The IC50 in data set [1] was less than 500 nM.

Molecule `Cc1c(F)cc2c(C#N)c(-c3ncc(S(=O)(=O)NC(CF)CF)cn3)n(C3CCCC3)c2c1F` [compound 656, 2-(3-cyano-1-cyclopentyl-5,7-difluoro-6-methyl-1H-indol-2-yl)-N-(1,3-difluoropropan-2-yl)pyrimidine-5-sulfonamide] registered a melting point of 230 to 234 °C. Also, the IC50 in data set [1] was less than 500 nM.

The molecule `N#Cc1c(-c2ncc(S(=O)(=O)NC(CF)CF)cn2)n(CC2CC2)c2ccc(F)cc12` [compound 302, 2-[3-cyano-1-(cyclopropylmethyl)-5-fluoro-1H-indol-2-yl]-N-(1,3-difluoropropan-2-yl)pyrimidine-5-sulfonamide] came in with a melting point of 216 to 221 °C. In data set [1], the IC50 is less than 500 nM.

Molecule `CC(C)NS(=O)(=O)c1cnc(-c2c(C#N)c3ccc(F)cc3n2C2CCC2)nc1` [compound 138, 2-(3-cyano-1-cyclobutyl-6-fluoro-1H-indol-2-yl)-N-(propan-2-yl)pyrimidine-5-sulfonamide] showed a melting point of 193 to 195 °C. Also, in data set [1], the 50% inhibitory concentration (IC50) was 500 to 2000 nM.

Source of the values: patent US8735414B2 (priority 2009, dated 2014).
